Measurements from patent US9936701B2, “Herbicidal compounds” (Syngenta Participations AG, priority 2013, dated 2018).

Key:
[1] = test system: a variety of test species; experiment: Post-emergence herbicidal activity (glasshouse, sprayed after 8 days cultivation, evaluated after 13 days); format: in vivo; parameters: key: 5=total damage to plant; 0=no damage to plant; conditions: rate 1000 g/Ha, scale 0-5
Procedure, shortened: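 Damage was rated 0-5 (5 = total) 13 days after a post-emergence spray of acetone/water (50:50) plus 0.5% Tween 20 formulation. Plants were sprayed at 8 days' growth and kept at 24/16° C, 14 h light, 65% humidity, watered twice daily.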

[2] = test system: a variety of test species; experiment: Pre-emergence herbicidal activity (glasshouse, sprayed one day after sowing, evaluated after 13 days); format: in vivo; parameters: key: 5=total damage to plant; 0=no damage to plant; conditions: application pre-emergence, rate 1000 g/Ha, scale 0-5
Procedure, shortened: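 Seeds sown in standard soil in pots, sprayed one day later (pre-emergence) with aqueous solution from acetone/water (50:50) formulation with 0.5% Tween 20. Glasshouse at 24/16 °C day/night, 14 h light, 65% humidity, watered twice daily. Damage scored after 13 days, 0 (none) to 5 (total).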

Row | Structure (SMILES) | ABUTH (Abutilon theophrasti) damage score, application post-emergence [1] | ALOMY (Alopecurus myosuroides) damage score, application post-emergence [1] | AMARE (Amaranthus retroflexus) damage score, application post-emergence [1] | ECHCG (Echinochloa crus-galli) damage score, application post-emergence [1] | SETFA (Setaria faberi) damage score, application post-emergence [1] | ZEAMX (Zea mays) damage score, application post-emergence [1] | Pre-emergence herbicidal damage score, ABUTH [2] | Pre-emergence herbicidal damage score, ALOMY [2] | Pre-emergence herbicidal damage score, AMARE [2] | Pre-emergence herbicidal damage score, ECHCG [2] | Pre-emergence herbicidal damage score, SETFA [2] | Pre-emergence herbicidal damage score, ZEAMX [2]
1 | CNC1=C(Cl)C(=O)N(c2cc(C(C)(C)C)on2)C1O (stereo not shown) [C1] | 5 | 4 | 5 | 5 | 4 | 1 | 3 | 2 | 5 | 4 | 4 | 1
2 | CN(C)C1=C(Cl)C(=O)N(c2cc(C(C)(C)C)on2)C1O (stereo not shown) [C2] | 5 | 4 | 5 | 5 | 4 | 3 | 1 | 1 |  | 2 | 1 | 1
3 | C=C(C)CNC1=C(Cl)C(=O)N(c2cc(C(C)(C)C)on2)C1O (stereo not shown) [C3] | 5 | 4 | 5 | 5 | 5 | 2 | 5 | 3 | 5 | 4 | 3 | 2
4 | CC(C)(C)c1cc(N2C(=O)C(Cl)=C(NCC3CC3)C2O)no1 (stereo not shown) [C4] | 5 | 5 | 5 | 5 | 5 | 4 | 5 | 2 | 5 | 5 | 4 | 3
5 | C#CCNC1=C(Cl)C(=O)N(c2cc(C(C)(C)C)on2)C1O (stereo not shown) [C5, 1-(5-tert-butylisoxazol-3-yl)-4-chloro-2-hydroxy-3-(prop-2-ynylamino)-2H-pyrrol-5-one] | 5 | 5 | 5 | 5 | 5 | 5 | 5 | 3 | 5 | 5 | 4 | 3
6 | CC(C)(C)c1cc(N2C(=O)C(Cl)=C(N)C2O)no1 (stereo not shown) [C6, 3-amino-1-(5-tert-butylisoxazol-3-yl)-4-chloro-2-hydroxy-2H-pyrrol-5-one] | 3 | 5 | 5 | 5 | 5 | 5 | 5 | 4 | 5 | 5 | 4 | 4
7 | CC(C)(C)c1cc(N2C(=O)C(Cl)=C(NC3CCC3)C2O)no1 (stereo not shown) [C9] | 0 | 0 | 2 | 0 | 0 | 0 | 0 | 0 | 3 | 0 | 0 | 0
8 | CC(C)(C)CNC1=C(Cl)C(=O)N(c2cc(C(C)(C)C)on2)C1O (stereo not shown) [C10] | 0 | 0 | 0 | 0 | 0 | 0 | 0 | 0 | 2 | 0 | 0 | 0
9 | COCCNC1=C(Cl)C(=O)N(c2cc(C(C)(C)C)on2)C1O (stereo not shown) [C11] | 5 | 4 | 5 | 5 | 5 | 1 | 4 | 3 | 5 | 4 | 4 | 2
10 | CCOCCNC1=C(Cl)C(=O)N(c2cc(C(C)(C)C)on2)C1O (stereo not shown) [C12] | 5 | 3 | 4 | 4 | 4 | 0 | 4 | 1 | 4 | 2 | 3 | 0
11 | CC(=O)OC1C(N)=C(Cl)C(=O)N1c1cc(C(C)(C)C)on1 (stereo not shown) [C13] | 5 | 5 | 5 | 5 | 5 | 5 | 5 | 4 | 5 | 5 | 4 | 4
12 | COC1=C(C)CN(c2cc(C(C)(C)C)on2)C1=O [D9] |  | 5 | 5 | 5 | 5 |  |  | 4 | 5 | 4 | 4 | 
13 | COC1=C(OC)C(O)N(c2cc(C(C)(C)C)on2)C1=O (stereo not shown) [F1] | 5 | 4 | 5 | 5 | 5 | 5 | 5 | 3 | 5 | 4 | 4 | 2
14 | COC1=C(C)C(=O)N(c2cc(C(C)(C)C)on2)C1O (stereo not shown) [G1] | 5 | 5 | 5 | 5 | 5 | 5 | 5 | 3 | 5 | 5 | 4 | 1
